Data as given in patent US8486964B2, “Fused pyrrolidino-cyclopropane derivatives as selective 11-beta-hydroxysteroid dehydrogenase type 1 inhibitors” (Merck Patent GmbH, priority 2009, dated 2013).

Experiments:
Format in all cases: biochemical
human 11-β-HSD-1 = human 11-β-HSD-1 (Homo sapiens (Human), UniProt P28845); assay: Inhibition of 11-β-HSD-1 enzyme assay (HTRF cortisol), human recombinant enzyme; settings: human recombinant enzyme expressed in E. coli; cortisone/NADPH 200 nM/200 μM; 150 minutes at 37° C.
Procedure: (§1) Human recombinant 11-beta-hydroxysteroid dehydrogenase type 1 (11-β-HSD-1) enzyme was expressed in E. coli. Rat and mice liver microsome fractions were purchased from TEBU.
(§2) The 11-β-HSD-1 enzyme assay was carried out in 96 well microtiter plates in a total volume of 100 μl containing 30 mM Hepes buffer, pH 7.4 with 1 mM EDTA, substrate mixture cortisone/NADPH (200 nM/200 μM), G-6-P (1 mM) and inhibitors in serial dilutions. Reactions were initiated by addition of 10 μl 11-β-HSD-1 (3 μg) from E. coli, either as microsome fractions from rat and mice liver (2.5 μg). Following mixing, the plates were shaken for 150 minutes at 37° C. The reactions were terminated with 10 μl Acid-18beta glycyrrhetinic stop solution. Determinations of cortisol levels in 11-β-HSD-1 preparations were monitored by HTRF (HTRF cortisol assay from Cis bio international).

mouse 11-β-HSD-1 = mouse 11-β-HSD-1 (Mus musculus (Mouse), UniProt P50172); assay: Inhibition of 11-β-HSD-1 enzyme assay (HTRF cortisol), mice liver microsome fractions; settings: cortisone/NADPH 200 nM/200 μM, 150 minutes at 37° C.
Procedure: as §1, §2

rat 11-β-HSD-1 = rat 11-β-HSD-1 (Rattus norvegicus (Rat), UniProt P16232); assay: Inhibition of 11-β-HSD-1 enzyme assay (HTRF cortisol), rat liver microsome fractions; settings: cortisone/NADPH 200 nM/200 μM, 150 minutes at 37° C.
Procedure: as §1, §2

Chain of mouse 11-β-HSD-1 (P50172 whole entry): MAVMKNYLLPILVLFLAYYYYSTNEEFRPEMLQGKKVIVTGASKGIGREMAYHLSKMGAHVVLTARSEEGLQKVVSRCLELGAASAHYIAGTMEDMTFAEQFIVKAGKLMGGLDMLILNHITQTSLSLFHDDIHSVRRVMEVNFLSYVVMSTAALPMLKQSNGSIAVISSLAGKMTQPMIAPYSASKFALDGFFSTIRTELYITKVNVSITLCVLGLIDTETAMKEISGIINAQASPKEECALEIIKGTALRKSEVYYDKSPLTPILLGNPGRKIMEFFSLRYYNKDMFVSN
Chain of rat 11-β-HSD-1 (P16232 whole entry): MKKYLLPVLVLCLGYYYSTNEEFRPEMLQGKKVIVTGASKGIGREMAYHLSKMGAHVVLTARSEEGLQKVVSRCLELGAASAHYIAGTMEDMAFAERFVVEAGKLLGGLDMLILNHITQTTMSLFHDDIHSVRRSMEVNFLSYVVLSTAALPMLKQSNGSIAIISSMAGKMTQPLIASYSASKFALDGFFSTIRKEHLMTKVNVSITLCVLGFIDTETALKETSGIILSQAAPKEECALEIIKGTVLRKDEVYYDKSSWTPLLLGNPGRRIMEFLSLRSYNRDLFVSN
Chain of human 11-β-HSD-1 (P28845 whole entry): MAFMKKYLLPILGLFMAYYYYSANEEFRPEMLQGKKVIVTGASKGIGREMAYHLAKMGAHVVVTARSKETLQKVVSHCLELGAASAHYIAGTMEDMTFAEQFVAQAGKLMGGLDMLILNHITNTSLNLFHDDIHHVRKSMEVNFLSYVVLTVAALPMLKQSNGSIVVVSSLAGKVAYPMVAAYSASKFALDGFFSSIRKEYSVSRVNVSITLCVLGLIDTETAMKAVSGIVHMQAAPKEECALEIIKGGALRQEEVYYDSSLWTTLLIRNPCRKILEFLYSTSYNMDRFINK

Q: With `O=C(N1CCC2(c3c[nH]c4ncccc34)CC12)C1(c2ccc(Cl)cc2)CC1` (stereo not drawn) [Compound 2, 3-(2-{[1-(4-chlorophenyl)cyclopropyl]carbonyl}-2-azabicyclo[3.1.0]hex-5-yl)-1H-pyrrolo[2,3-b]pyridine] as the compound, how does the IC50 (human 11-β-HSD-1) read?
A: The IC50 was 0.022 µM.

Q: What about the IC50 (mouse 11-β-HSD-1) of the same compound?
A: The IC50 was 1.54 µM.

Q: What about the IC50 (rat 11-β-HSD-1) of the same compound?
A: The IC50 was 1.29 µM.
